From US9445597B2, “Pesticidal compositions and related methods” (DOW AGROSCIENCES LLC, priority 2013, dated 2016)
Like-named read-outs stand apart in the source and are kept apart here.

Legend:
[1] = test system: Green Peach Aphid (Myzus persicae) (GPA) (MYZUPE); test: Bioassay for Green Peach Aphid (GPA), foliar spray on cabbage seedlings; type: in vivo; settings: 72 h, read-out: % Control (or Mortality) rating, GPA
Experimental: Example A: Bioassay for Green Peach Aphid (Myzus persicae) (GPA) (MYZUPE).
Cabbage seedlings grown in 3-inch pots, with 2-3 small (3-5 cm) true leaves, were used as test substrate. The seedlings were infested with 20-50 GPA (wingless adult and nymph stages) one day prior to chemical application. Four pots with individual seedlings were used for each treatment. Test compounds (2 mg) were dissolved in 2 mL of acetone/methanol (1:1) solvent, forming stock solutions of 1000 ppm test compound. The stock solutions were diluted 5× with 0.025% Tween 20 in H2O to obtain the solution at 200 ppm test compound. A hand-held aspirator-type sprayer was used for spraying a solution to both sides of […] leaves until runoff. Reference plants (solvent check) were sprayed with the diluent only containing 20% by volume of acetone/methanol (1:1) solvent. Treated plants were held in a holding room for three days at approximately 25° C. and ambient relative humidity (RH) prior to grading. Evaluation was conducted by counting the number of live aphids per plant under a microscope. Percent control was measured by using Abbott's correction formula (W. S. Abbott, “A Method of Computing the Effectiveness of an Insecticide” J. Econ. Entomol. 18 (1925), pp. 265-267) as follows. Corrected % Control=100*(X−Y)/X • where • X=No. of live aphids on solvent check plants and • Y=No. of live aphids on treated plants
(§1) Biological Data for Green Peach Aphid (GPA) (MYZUPE) and Sweetpotato Whitefly-crawler (WF) (BEMITA)” (see table section).

[2] = test system: Sweetpotato Whitefly-crawler (WF) (Bemisia tabaci) (BEMITA); test: Insecticidal test for Sweetpotato Whitefly-crawler (WF) in foliar spray assay on cotton plants; type: in vivo; settings: 216 h, read-out: % Control (or Mortality) rating, WF
Experimental: Example B: Insecticidal test for Sweetpotato Whitefly-crawler (WF) (Bemisia tabaci) (BEMITA) in foliar spray assay.
Cotton plants (Gossypium hirsutum) grown in 3-inch pots, with 1 small (4-5 cm) true leaves, were used as test substrate. The plants were infested with 200-400 whitefly eggs 4-5 days prior to chemical application. Four pots with individual plants were used for each treatment. Test compounds (2 mg) were dissolved in 1 mL of acetone solvent, forming stock solutions of 2000 ppm test compound. The stock solutions were diluted 10× with 0.025% Tween 20 in H2O (diluents) to obtain the solution at 200 ppm test compound. A hand-held aspirator-type sprayer was used for spraying a solution to both sides of cotton leaves until runoff. Reference plants (solvent check) were sprayed with the diluent only containing 10% by volume of acetone solvent. Treated plants were held in a holding room for 9 days at approximately 25° C. and ambient relative humidity (RH) prior to grading. Evaluation was conducted by counting the number of live 3-4 nymph stage per plant under a microscope. Percent control was measured by using Abbott's correction formula (W. S. Abbott, “A Method of Computing the Effectiveness of an Insecticide” J. Econ. Entomol. 18 (1925), pp. 265-267) as follows. Corrected % Control=100*(X−Y)/X • where • X=No. of live nymphs on solvent check plants and • Y=No. of live nymphs on treated plants.
as §1

[3] = 200 ppm foliar spray, cabbage seedlings, graded after three days, Abbott corrected % control
[4] = 200 ppm foliar spray, cotton plants, graded after 9 days, Abbott corrected % control

Structure (SMILES)	mortality at 200 ppm ([1]; foliar) [%]	mortality at 200 ppm ([2]; foliar) [%]	mortality at 200 ppm [1, 3] [%]	mortality at 200 ppm [2, 4] [%]
Cc1nc(-c2cc(F)c[n+]([O-])c2)sc1N(C)C(=O)OC(C)(C)C [CA1, 3-(5-((tert-Butoxycarbonyl)(methyl)amino)-4-methylthiazol-2-yl)-5-fluoropyridine 1-oxide]	80 to 100	0 to 80	–	–
CSCCC(=O)Nc1sc(-c2cccnc2)nc1Cl [Compound C3, N-(4-chloro-2-(pyridin-3-yl)thiazol-5-yl)-3-(methylthio)propanamide]	–	–	80 to 100	0 to 80
CC(CS(C)(=O)=O)C(=O)N(C)c1sc(-c2ccc[n+]([O-])c2)nc1Cl (centres unmarked) [Compound F1, 3-(4-Chloro-5-(N,2-dimethyl-3-(methylsulfonyl)propanamido)thiazol-2yl) pyridine 1-oxide]	–	–	80 to 100	0 to 80
CS(=O)(=O)CCC(=O)Nc1sc(-c2ccc[n+]([O-])c2)nc1Cl [Compound F2]	–	–	80 to 100	0 to 80
CCN(C(=O)CCS(C)(=O)=O)c1sc(-c2ccc[n+]([O-])c2)nc1Cl [Compound F3, 3-(4-chloro-5-(N-ethyl-3-(methylsulfonyl)propanamido)thiazol-2-yl)pyridine 1-oxide]	–	–	80 to 100	80 to 100
CCN(C(=O)CCSCCC(F)(F)F)c1sc(-c2ccc[n+]([O-])c2)nc1Cl [Compound P1, 3-(4-chloro-5-(N-ethyl-3-((3,3,3-trifluoropropyl)thio)propanamido)thiazol-2-yl)pyridine 1-oxide]	–	–	80 to 100	80 to 100
CCN(C(=O)CC[S+]([O-])CCC(F)(F)F)c1sc(-c2ccc[n+]([O-])c2)nc1Cl (centres unmarked) [Compound P2, 3-(4-Chloro-5-(N-ethyl-3-((3,3,3-trifluoropropyl)sulfinyl)propanamido)thiazol-2-yl)pyridine 1-oxide]	–	–	80 to 100	80 to 100
CCN(C(=O)CCS(=O)(=O)CCC(F)(F)F)c1sc(-c2ccc[n+]([O-])c2)nc1Cl [Compound P3, 3-(4-Chloro-5-(N-ethyl-3-((3,3,3-trifluoropropyl)sulfonyl)propanamido)thiazol-2-yl)pyridine 1-oxide]	–	–	80 to 100	80 to 100
CCN(C(=O)CCSC)c1sc(-c2ccc[n+]([O-])c2)nc1Cl [Compound P4, 3-(4-Chloro-5-(N-ethyl-3-(methylthio)propanamido)thiazol-2-yl) pyridine 1-oxide]	–	–	80 to 100	80 to 100
CCN(C(=O)CC[S+](C)[O-])c1sc(-c2ccc[n+]([O-])c2)nc1Cl (centres unmarked) [Compound P5, 3-(4-Chloro-5-(N-ethyl-3-(methylsulfinyl)propanamido)thiazol-2-yl)pyridine 1-oxide]	–	–	80 to 100	80 to 100
CCN(C(=O)C(C)CSC)c1sc(-c2ccc[n+]([O-])c2)nc1Cl (centres unmarked) [Compound P6, 3-(4-Chloro-5-(N-ethyl-2-methyl-3-(methylthio)propanamido)thiazol-2-yl)pyridine 1-oxide]	–	–	80 to 100	80 to 100
CCN(C(=O)C(C)C[S+](C)[O-])c1sc(-c2ccc[n+]([O-])c2)nc1Cl (centres unmarked) [Compound P7, 3-(4-Chloro-5-(N-ethyl-2-methyl-3-(methylsulfinyl)propanamido)thiazol-2-yl)pyridine 1-oxide]	–	–	80 to 100	80 to 100
CCN(C(=O)C(C)CS(C)(=O)=O)c1sc(-c2ccc[n+]([O-])c2)nc1Cl (centres unmarked) [Compound P8, 3-(4-Chloro-5-(N-ethyl-2-methyl-3-(methylsulfonyl)propanamido)thiazol-2-yl)pyridine 1-oxide]	–	–	80 to 100	80 to 100
CSCCC(=O)N(C)c1sc(-c2cc(F)c[n+]([O-])c2)nc1C [FA1, 3-Fluoro-5-(4-methyl-5-(N-methyl-3-(methylthio)propanamido)thiazol-2-yl)pyridine 1-oxide]	–	–	80 to 100	80 to 100
Cc1nc(-c2cc(F)c[n+]([O-])c2)sc1N(C)C(=O)CCS(C)(=O)=O [FA2, 3-Fluoro-5-(4-methyl-5-(N-methyl-3-(methylsulfonyl)propanamido)thiazol-2-yl)pyridine 1-oxide]	–	–	80 to 100	80 to 100
Cc1nc(-c2cc(F)c[n+]([O-])c2)sc1N(C)C(=O)CC[S+](C)[O-] (centres unmarked) [FA3, 3-Fluoro-5-(4-methyl-5-(N-methyl-3-(methylsulfinyl)propanamido)thiazol-2-yl)pyridine 1-oxide]	–	–	80 to 100	80 to 100
